Assay results from article PMC10970734, “Identification of an Intravenous Injectable NK1 Receptor Antagonist for Use in Traumatic Brain Injury” (International Journal of Molecular Sciences, 2024).
Entries after “also recorded” stand apart in the source; their conditions may differ.

Experiments:
Histamine H2 = Histamine H2 (Homo sapiens, UniProt P25021); assay: Cerep selectivity profiling, receptor antagonism; type: biochemical
Protocol: The pharmacological specificity of EUC-001 was assessed using the commercially available selectivity profiling services provided by Cerep (Celle l’Evescault, France). Initially, the activity of EUC-001, at a fixed concentration of 10 μM, was evaluated in a range of assays to assess pharmacological selectivity relative to other cell-surface receptors, ion channels and transport proteins. Where any significant binding was detected, further assays were performed to quantify potential non-selective activity. […] In terms of this non-specific activity, the IC50s are approximately 3.6 log units greater than that required for NK1R antagonism.
The pharmacological specificity of EUC-001 was assessed using the commercially available selectivity profiling services provided by Cerep (Celle l’Evescault, France). For initial screens, the binding of EUC-001 (synthesized by Hoffmann-La Roche, Basel, Switzerland) at a fixed concentration of 10 μM was evaluated in a range of assays to assess pharmacological selectivity relative to other cell-surface receptors, ion channels and transport proteins.
For agonist activity, results are expressed as a percentage of the control agonist response induced by the selective NK1R agonist [Sar^9, Met(O2)^11]-substance P (100 nM) for a range of concentrations of EUC-001. Antagonist activity is expressed as a percentage change in the response induced by 3 nM [Sar^9, Met(O2)^11]-SP (R&D systems) across a range of concentrations of EUC-001. The EC50 values (concentration producing a half-maximal specific response) and IC50 values (concentration causing a half-maximal inhibition of the control specific agonist response) were determined by non-linear regression analysis of the concentration–response curves generated with mean replicate values using Hill equation curve fitting (Y = D + [(A − D)/(1 + (C/C50)nH)], where Y = specific response, D = minimum specific response, A = maximum specific response, C = compound concentration, and C50 = EC50 or IC50, and nH = slope factor). This analysis was performed using custom software developed at Cerep and validated by comparison with data generated by the commercial software SigmaPlot® 4.0 for Windows® (SPSS Inc., Chicago, IL, USA). For the antagonists, the apparent dissociation constants (KB) were calculated using the modified Cheng Prusoff equation (KB = IC50/(1 + (A/EC50A)), where A = concentration of reference agonist in the assay, and EC50A = EC50 value of the reference agonist).

rodent model of TBI [1] = assay: BBB permeability after TBI, Evan's blue extravasation; type: in vivo, Sprague Dawley rats; settings: rat TBI
Description: Injury was induced in halothane-anesthetized (ProVet) male Sprague Dawley rats (400 ± 20 g) using acceleration-induced impact TBI [29, 93]. This model involves impacting a 10 mm diameter, 3 mm thick stainless steel disc fixed centrally to the exposed skull between the lambda and bregma with an accelerating impactor. The impactor was a 450 g brass weight dropped from a height of 2 m. […] All animals were fed and watered ad libitum before the induction of injury. During both surgery and the immediate recovery phase, rat rectal temperature was maintained using a thermostatically controlled heating pad. Immediately after injury, animals were manually ventilated until stable respiration was restored, usually in <5 min. After injury, all wounds were sutured. Blood pressure was monitored, both before and after injury, using a femoral arterial line.
The optimal dose of the NK1 receptor antagonist was determined from the level of BBB permeability using EB dye extravasation as the BBB marker [94, 95]. Briefly, EUC-001 was administered intravenously 30 min after TBI at doses ranging between 0.03 and 10 mg/kg in six steps (n = 3 per group). […] The supernatants were measured at 610 nm for absorbance of EB using a spectrophotometer (Cole-Parmer, Vernon Hills, IL, USA). Evans blue is expressed as mg/mg of the brain tissue against a standard curve.

rodent model of TBI [2] = assay: Cognitive function after TBI, Barnes maze; type: in vivo, Sprague Dawley rats; settings: rat TBI, 10 mg/kg 30 min post-injury, 10 days
Protocol: Cognitive outcome was assessed using the Barnes maze in order to reduce the potential confounding effects that may be associated with tests such as the Morris water maze. In the Barnes maze, animals were placed under a cover in the centre of an elevated 1.2 m diameter board containing 19 holes around the periphery. One hole contained the entrance to a darkened escape tunnel that was not visible from the surface, relying on the animal to use surrounding visual cues to locate the tunnel. The time, in seconds, for the animal to locate and enter the escape tunnel was recorded. Following pre-training, the effect of injury, and post-injury treatment, on the time taken for the animal to locate the tunnel was measured (Figure 7). […]
Injury was induced in halothane-anesthetized (ProVet) male Sprague Dawley rats (400 ± 20 g) using acceleration-induced impact TBI [29, 93]. […] Blood pressure was monitored, both before and after injury, using a femoral arterial line. […]
Motor and cognitive outcomes in animals (n = 6 per group) were assessed using the rotarod and Barnes maze, respectively, as described in detail elsewhere. […] The rotational speed of the device was increased from 0 to 30 r.p.m. and the duration (in seconds) when the animals either completed the task, fell from the rods, or gripped the rods and spun for two consecutive revolutions rather than walking actively was recorded as the rotarod score. […]

NK1R = NK1R (Homo sapiens, UniProt P25103); assay: In vitro functional assay, free Ca2+ concentration in U373MG cells endogenously expressing NK1R; type: cell-based; design: which endogenously express the NK1R; endogenous in cells; host or cells: U373MG human glioblastoma astrocytoma cells (ATCC)
NK1R, sequence (P25103 whole entry): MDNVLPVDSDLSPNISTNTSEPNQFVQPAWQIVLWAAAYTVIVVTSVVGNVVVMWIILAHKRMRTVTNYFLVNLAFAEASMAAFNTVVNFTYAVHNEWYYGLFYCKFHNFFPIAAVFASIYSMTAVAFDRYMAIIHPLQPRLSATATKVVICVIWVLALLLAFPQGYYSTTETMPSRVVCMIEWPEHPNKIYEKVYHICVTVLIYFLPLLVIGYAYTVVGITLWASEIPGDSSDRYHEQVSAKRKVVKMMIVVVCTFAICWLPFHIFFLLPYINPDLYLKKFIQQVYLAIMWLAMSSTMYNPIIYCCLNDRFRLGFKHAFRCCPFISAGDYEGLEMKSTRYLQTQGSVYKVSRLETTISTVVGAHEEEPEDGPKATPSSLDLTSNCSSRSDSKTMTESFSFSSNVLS
Protocol: In vitro functional assays were performed by assessing changes in free Ca^2+ ion concentration in human glioblastoma (U373MG) cells, which endogenously express the NK1R. Agonist activity of EUC-001 is expressed as a percentage of the agonist response induced by the selective NK1R agonist [Sar^9, Met(O2)^11]-substance P (100 nM; Figure 2A), whilst antagonist activity is expressed as a percentage change in the response induced by 3 nM [Sar^9, Met(O2)^11]-SP (Figure 2B).
Human glioblastoma astrocytoma (U373MG) cells (ATCC) were used for in vitro function studies involving intracellular calcium measurements. […] Intracellular calcium concentrations were determined by using the calcium chelating agent fura-2 (Molecular Probes, Waltham, MA, USA). Aliquots of fura-2-loaded cells were subject to agonist stimulation and fluorescence emission was recorded using an MS-5 spectrophotometer (Perkin Elmer, Shelton, CT, USA). Loading of cells, fluorescence monitoring, calibration procedures, and other experimental details were as previously described.
For agonist activity, results are expressed as a percentage of the control agonist response induced by the selective NK1R agonist [Sar^9, Met(O2)^11]-substance P (100 nM) for a range of concentrations of EUC-001. […]

Histamine H2, sequence (P25021 whole entry): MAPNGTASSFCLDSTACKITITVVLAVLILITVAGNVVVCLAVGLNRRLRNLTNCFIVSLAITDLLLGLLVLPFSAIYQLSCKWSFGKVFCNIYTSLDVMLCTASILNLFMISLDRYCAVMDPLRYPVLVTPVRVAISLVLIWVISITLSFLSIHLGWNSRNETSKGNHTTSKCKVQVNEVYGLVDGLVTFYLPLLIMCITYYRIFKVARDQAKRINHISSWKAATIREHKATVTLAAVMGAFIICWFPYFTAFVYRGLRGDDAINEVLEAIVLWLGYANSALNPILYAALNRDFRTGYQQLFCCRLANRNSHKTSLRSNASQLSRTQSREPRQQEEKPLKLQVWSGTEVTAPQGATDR

SMILES: Cc1ccccc1-c1cc(N2CCN(C)CC2)ncc1C(=O)N(C)Cc1cc(C(F)(F)F)cc(C(F)(F)F)c1 [EUC-001, N-(3,5-Bis-trifluoromethyl-benzyl)-N-methyl-6-(4-methyl-piperazine-1-yl)-4-o-tolyl-nicotinamide]
- IC50 (Histamine H2): 16 µM
- Evan's blue leakage relative to drug vehicle (rodent model of TBI [1]; 10 mg/kg 30 min post-injury, tissues 5 h after injury): significant reduction
- IC50, decrease in Evan's blue extravasation (rodent model of TBI [1]; bolus iv 30 min after injury, 0.03-10 mg/kg): 0.43 mg/kg
- Cognitive function, Barnes maze time to locate escape tunnel (rodent model of TBI [2]): minimal impact on the performance time
- Agonist activity, percentage of response to 100 nM [Sar9, Met(O2)11]-substance P (NK1R): did not exhibit any detectable agonist activity; also recorded: no agonist activity
- IC50 (NK1R; 3 nM [Sar9, Met(O2)11]-SP, read-out: IC50, inhibition of [Sar9, Met(O2)11]-SP-mediated response): 0.00069 µM
